Laboratory results published in ChEMBL document CHEMBL4420076, “Amylin and calcitonin receptor agonist” (2017).
Numbered stars: 1 amine (or outer) side, 2 acyl side, 3 side chain; on linkers, the order of the positions; unused ones are H or OH. Side chains are listed from the residue outwards. Peptide text beside a SMILES is read from it. * marks the point of attachment. C20 diacid = O=C(O)CCCCCCCCCCCCCCCCCCC(=O)*; γGlu = O=C(O)[C@H](CCC(=O)[*:2])N[*:1]

How the values were obtained:
[1] = Solubility in 100 mM bistrispropane buffer at pH 6.5 incubated for 18 hrs by UPLC analysis; format: physicochemical
Rattus norvegicus [2] = assay: Reduction in food intake in Sprague-Dawley rat at 3 nmol/kg measured 24 to 48 hrs post dose relative to control; format: functional; set-up: scale not given: the % may be the effect or the level left
[3] = Solubility in 100 mM bistrispropane buffer at pH 8.0 incubated for 18 hrs by UPLC analysis; format: physicochemical
[4] = Solubility in 100 mM glycylglycine buffer at pH 3.0 incubated for 18 hrs by UPLC analysis; format: physicochemical
Calcitonin receptor [5] = target: T1, Calcitonin receptor (Homo sapiens, UniProt P30988); assay: Agonist activity at human calcitonin receptor expressed in BHK570 cells assessed as increase in intracellular cAMP concentration incubated for 3 hrs in absence of albumin by CRE luciferase reporter gene assay; format: functional, cell-based
T1 sequence (P30988 whole entry): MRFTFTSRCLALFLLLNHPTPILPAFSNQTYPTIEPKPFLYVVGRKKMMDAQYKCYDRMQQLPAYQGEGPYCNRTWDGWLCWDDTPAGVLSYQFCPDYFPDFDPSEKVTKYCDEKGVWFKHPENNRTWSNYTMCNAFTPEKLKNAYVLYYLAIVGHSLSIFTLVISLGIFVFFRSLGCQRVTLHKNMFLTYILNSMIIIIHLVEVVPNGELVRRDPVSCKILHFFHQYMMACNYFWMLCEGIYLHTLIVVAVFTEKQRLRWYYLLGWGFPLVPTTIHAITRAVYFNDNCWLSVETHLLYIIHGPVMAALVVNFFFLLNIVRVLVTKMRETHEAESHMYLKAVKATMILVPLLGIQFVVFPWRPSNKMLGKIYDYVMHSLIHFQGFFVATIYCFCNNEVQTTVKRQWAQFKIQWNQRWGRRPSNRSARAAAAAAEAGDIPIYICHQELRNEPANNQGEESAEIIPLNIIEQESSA

[6] = target: T2, Amylin receptor AMY3; CALCR/RAMP3 (Rattus norvegicus, UniProt P32214+Q9JJ73); assay: Displacement of [125I]-labeled rat amylin from rat amylin receptor expressed in BHK tkts13 cell membranes co-expressing RAMP3 incubated for 120 mins by scintillation proximity assay
T2 sequence (P32214 whole entry): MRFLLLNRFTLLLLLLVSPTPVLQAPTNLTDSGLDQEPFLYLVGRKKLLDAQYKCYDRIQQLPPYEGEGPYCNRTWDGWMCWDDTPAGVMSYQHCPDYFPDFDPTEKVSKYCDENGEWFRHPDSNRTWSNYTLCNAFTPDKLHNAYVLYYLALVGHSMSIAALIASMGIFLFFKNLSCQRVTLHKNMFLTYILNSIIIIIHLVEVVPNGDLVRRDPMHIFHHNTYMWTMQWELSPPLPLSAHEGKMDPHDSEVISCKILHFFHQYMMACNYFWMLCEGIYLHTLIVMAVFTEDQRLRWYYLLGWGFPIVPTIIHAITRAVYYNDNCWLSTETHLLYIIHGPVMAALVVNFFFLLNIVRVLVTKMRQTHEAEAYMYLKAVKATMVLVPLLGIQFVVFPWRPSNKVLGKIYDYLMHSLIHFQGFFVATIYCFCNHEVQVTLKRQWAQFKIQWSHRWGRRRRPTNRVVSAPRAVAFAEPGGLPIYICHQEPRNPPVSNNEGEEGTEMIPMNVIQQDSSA
T2 sequence (Q9JJ73 whole entry): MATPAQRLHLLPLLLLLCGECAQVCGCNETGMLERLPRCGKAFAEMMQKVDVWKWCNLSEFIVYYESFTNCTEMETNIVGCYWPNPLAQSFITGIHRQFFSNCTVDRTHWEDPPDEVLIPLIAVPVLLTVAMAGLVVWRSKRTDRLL

[7] = Solubility in 100 mM bistrispropane buffer at pH 7.5 incubated for 18 hrs by UPLC analysis; format: physicochemical
[8] = Solubility in 100 mM bistrispropane buffer at pH 6.0 incubated for 18 hrs by UPLC analysis; format: physicochemical
[9] = Solubility in 100 mM glycylglycine buffer at pH 5.0 incubated for 18 hrs by UPLC analysis; format: physicochemical
Calcitonin receptor [10] = target: T1, Calcitonin receptor; assay: Displacement of [125I]-labeled human calcitonin from human calcitonin receptor expressed in BHK tkts13 cell membranes incubated for 1 hr by scintillation proximity assay
[11] = target: T3, Amylin receptor AMY3; CALCR/RAMP3 (Homo sapiens, UniProt O60896+P30988); assay: Agonist activity at human amylin receptor expressed in BHK570 cells co-expressing RAMP3 assessed as increase in intracellular cAMP concentration incubated for 3 hrs in presence of 10% FBS by CRE luciferase reporter gene assay; format: functional, cell-based
T3 sequence (P30988 whole entry): T1 sequence (P30988 whole entry)
T3 sequence (O60896 whole entry): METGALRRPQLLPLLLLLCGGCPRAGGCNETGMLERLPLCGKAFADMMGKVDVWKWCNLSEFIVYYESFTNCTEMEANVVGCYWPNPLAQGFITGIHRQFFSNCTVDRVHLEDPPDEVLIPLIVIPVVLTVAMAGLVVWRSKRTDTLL

Rattus norvegicus [12] = assay: Reduction in food intake in Sprague-Dawley rat at 3 nmol/kg measured 0 to 24 hrs post dose relative to control; format: functional; set-up: scale not given: the % may be the effect or the level left
[13] = target: T3, Amylin receptor AMY3; CALCR/RAMP3; assay: Agonist activity at human amylin receptor expressed in BHK570 cells co-expressing RAMP3 assessed as increase in intracellular cAMP concentration incubated for 3 hrs in absence of albumin by CRE luciferase reporter gene assay; format: functional, cell-based
[14] = Solubility in 100 mM bistrispropane buffer at pH 7.0 incubated for 18 hrs by UPLC analysis; format: physicochemical
Calcitonin receptor [15] = target: T1, Calcitonin receptor; assay: Agonist activity at human calcitonin receptor expressed in BHK570 cells assessed as increase in intracellular cAMP concentration incubated for 3 hrs in presence of 10% FBS by CRE luciferase reporter gene assay; format: functional, cell-based
[16] = target: T3, Amylin receptor AMY3; CALCR/RAMP3; assay: Displacement of [125I]-labeled rat amylin from human amylin receptor expressed in BHK tkts13 whole cells co-expressing RAMP3 incubated for 60 mins by scintillation proximity assay; format: cell-based
[17] = Solubility in 100 mM glycylglycine buffer at pH 4.0 incubated for 18 hrs by UPLC analysis; format: physicochemical

Row | SMILES | solubility at 18 h [1] | Activity (Rattus norvegicus [2]) | solubility at 18 h [3] | solubility at 18 h [4] | EC50 (Calcitonin receptor [5]) | IC50 [6] | solubility at 18 h [7] | solubility at 18 h [8] | solubility at 18 h [9] | IC50 (Calcitonin receptor [10]) | EC50 [11] | Activity (Rattus norvegicus [12]) | EC50 [13] | solubility at 18 h [14] | EC50 (Calcitonin receptor [15]) | IC50 [16] | solubility at 18 h [17]
1 | CC(C)C[C@H](NC(=O)CNC(=O)[C@H](CO)NC(=O)[C@H](C)NC(=O)CC[C@H](NC(=O)CCCCCCCCCCCCCCCCCCC(=O)O)C(=O)O)C(=O)N[C@@H](CO)C(=O)N[C@H](C(=O)N[C@@H](C)C(=O)N[C@H](C(=O)N[C@@H](CC(C)C)C(=O)NCC(=O)N[C@@H](CCCCN)C(=O)N[C@@H](CC(C)C)C(=O)N[C@@H](CO)C(=O)N[C@@H](CCC(N)=O)C(=O)N[C@@H](CCC(=O)O)C(=O)N[C@@H](CC(C)C)C(=O)N[C@@H](Cc1cnc[nH]1)C(=O)N[C@@H](CCC(=O)O)C(=O)N[C@@H](CC(C)C)C(=O)N[C@@H](CCC(N)=O)C(=O)N[C@H](C(=O)N[C@@H](Cc1ccc(O)cc1)C(=O)N1CCC[C@H]1C(=O)N1CCC[C@H]1C(=O)N[C@H](C(=O)N[C@@H](CCC(=O)O)C(=O)N[C@H](C(=O)NCC(=O)N[C@@H](CO)C(=O)NCC(=O)N[C@H](C(=O)N[C@@H](Cc1ccc(O)cc1)C(N)=O)[C@@H](C)O)[C@@H](C)O)[C@@H](C)O)[C@@H](C)O)C(C)C)[C@@H](C)O ({C20 diacid-γGlu}-ASGLSTAVLGKLSQELHELQTYPPTETGSGTY-NH2) | ≥ 200 µM | 9% | ≥ 200 µM | ≥ 200 µM | 0.015 nM | 0.385 nM | ≥ 200 µM | ≥ 200 µM | ≥ 200 µM | 0.651 nM | 0.154 nM | 8% | 0.018 nM | ≥ 200 µM | 0.062 nM | – | –
2 | CC(C)C[C@H](NC(=O)[C@H](CCCNC(=N)N)NC(=O)CNC(=O)[C@H](CC(C)C)NC(=O)[C@@H](NC(=O)[C@H](C)NC(=O)[C@@H](NC(=O)[C@H](CO)NC(=O)[C@H](CC(C)C)NC(=O)[C@H](CCC(N)=O)NC(=O)[C@H](CO)NC(=O)[C@H](C)NC(=O)CC[C@H](NC(=O)CCCCCCCCCCCCCCCCCCC(=O)O)C(=O)O)[C@@H](C)O)C(C)C)C(=O)N[C@@H](CO)C(=O)N[C@@H](CCC(N)=O)C(=O)N[C@@H](CCCNC(=N)N)C(=O)N[C@@H](CC(C)C)C(=O)N[C@@H](Cc1cnc[nH]1)C(=O)N[C@@H](CCCNC(=N)N)C(=O)N[C@@H](CC(C)C)C(=O)N[C@@H](CCC(N)=O)C(=O)N[C@H](C(=O)N[C@@H](Cc1ccc(O)cc1)C(=O)N1CCC[C@H]1C(=O)N[C@@H](CCCNC(=N)N)C(=O)N[C@H](C(=O)N[C@@H](CCC(N)=O)C(=O)N[C@H](C(=O)NCC(=O)N[C@@H](CO)C(=O)N[C@@H](CCC(N)=O)C(=O)N[C@H](C(=O)N[C@@H](Cc1ccc(O)cc1)C(N)=O)[C@@H](C)O)[C@@H](C)O)[C@@H](C)O)[C@@H](C)O ({C20 diacid-γGlu}-ASQLSTAVLGRLSQRLHRLQTYPRTQTGSQTY-NH2) | – | – | – | – | 0.015 nM | 1.16 nM | – | – | – | 0.131 nM | 0.037 nM | – | 0.016 nM | – | 0.05 nM | 3.7 nM | –
3 | CC(C)C[C@H](NC(=O)[C@H](CO)NC(=O)[C@H](C)NC(=O)[C@@H](NC(=O)[C@H](CO)NC(=O)[C@H](CC(C)C)NC(=O)[C@H](CCC(=O)O)NC(=O)[C@H](CO)NC(=O)[C@H](C)NC(=O)CC[C@H](NC(=O)CCCCCCCCCCCCCCCCCCC(=O)O)C(=O)O)[C@@H](C)O)C(=O)NCC(=O)N[C@@H](CCCNC(=N)N)C(=O)N[C@@H](CC(C)C)C(=O)N[C@@H](CO)C(=O)N[C@@H](C)C(=O)N[C@@H](CCC(=O)O)C(=O)N[C@@H](CC(C)C)C(=O)N[C@@H](Cc1cnc[nH]1)C(=O)N[C@@H](CCC(=O)O)C(=O)N[C@@H](CC(C)C)C(=O)N[C@@H](CO)C(=O)N[C@H](C(=O)N[C@@H](Cc1ccc(O)cc1)C(=O)N1CCC[C@H]1C(=O)N[C@@H](CCCNC(=N)N)C(=O)N[C@H](C(=O)N[C@@H](CCC(=O)O)C(=O)N[C@H](C(=O)NCC(=O)N[C@@H](CO)C(=O)NCC(=O)N[C@@H](CO)C(=O)N[C@@H](Cc1ccc(O)cc1)C(N)=O)[C@@H](C)O)[C@@H](C)O)[C@@H](C)O ({C20 diacid-γGlu}-ASELSTASLGRLSAELHELSTYPRTETGSGSY-NH2) | – | – | ≥ 200 µM | ≥ 200 µM | 0.016 nM | 0.046 nM | ≥ 200 µM | – | – | 0.1 nM | 0.143 nM | – | 0.017 nM | ≥ 200 µM | 0.108 nM | 3.17 nM | –
4 | CC(=O)N[C@@H](C)C(=O)N[C@@H](CO)C(=O)N[C@@H](CCC(=O)O)C(=O)N[C@@H](CC(C)C)C(=O)N[C@@H](CO)C(=O)N[C@H](C(=O)N[C@@H](C)C(=O)N[C@@H](C)C(=O)N[C@@H](CC(C)C)C(=O)NCC(=O)N[C@@H](CCCNC(=N)N)C(=O)N[C@@H](CC(C)C)C(=O)N[C@@H](CO)C(=O)N[C@@H](C)C(=O)N[C@@H](CCC(=O)O)C(=O)N[C@@H](CC(C)C)C(=O)N[C@@H](Cc1cnc[nH]1)C(=O)N[C@@H](CCCCNC(=O)CC[C@H](NC(=O)CCCCCCCCCCCCCCCCCCC(=O)O)C(=O)O)C(=O)N[C@@H](CC(C)C)C(=O)N[C@@H](C)C(=O)N[C@H](C(=O)N[C@@H](CC(C)C)C(=O)N1CCC[C@H]1C(=O)N[C@@H](CCCNC(=N)N)C(=O)N[C@H](C(=O)N[C@@H](CCC(=O)O)C(=O)N[C@H](C(=O)NCC(=O)N[C@@H](CO)C(=O)NCC(=O)N[C@@H](CO)C(=O)N1CCC[C@H]1C(N)=O)[C@@H](C)O)[C@@H](C)O)[C@@H](C)O)[C@@H](C)O (Ac-ASELSTAALGRLSAELHK([γGlu-C20 diacid])LATLPRTETGSGSP-NH2) | ≥ 200 µM | – | ≥ 200 µM | ≥ 200 µM | 0.019 nM | 0.684 nM | ≥ 200 µM | ≥ 200 µM | ≥ 200 µM | 0.077 nM | 0.047 nM | – | 0.032 nM | ≥ 200 µM | 0.022 nM | – | ≥ 200 µM
